Assay results published in patent EP0587374A2, “Sulfated sterol glycosides and their use against viral infections” (VIROSTAT (NA) NV, priority 1992, dated 1994).
Read-outs that look alike come from different tables or passages of the source.

Columns and labels:
[1] = test system: Peripheral blood lymphocytes; experiment: In vitro cytotoxicity, Trypan Blue exclusion after 3 days of culture; settings: 3 days, means of 4 counts
Description: Peripheral blood lymphocytes were prepared from normal blood. Cells were cultured for 3 days in complete medium [(RPMI, a commercially available so-called standard salt solution) + 10 % foetal calf serum (FCS) + […]] in the presence/absence of phytohemagglutinin (PHA). Duplicate wells were set up. Incubation was at 37°C and 5 % CO₂.
On the third day, cell viabilities were determined using the Trypan Blue exclusion test.
Those products which were water soluble, were made up at 8 mg/mℓ stocks in sterile distilled water and diluted 1:10 in RPMI medium and again diluted 1:10 directly in the wells containing the cells in complete medium. The final concentrations were thus 80 µg/mℓ. For the lower dilutions, the 8 mg/mℓ stock was diluted 1:2 or 1:4 or 1:8 in water before being diluted in the RPMI medium.
For those products which were DMSO-soluble, the stocks were made'up at 8 mg/mℓ in 100 % DMSO. This stock was diluted 1:10 in 100 % FCS and diluted 1:10 directly in the wells containing the cells in RPMI medium only. The final concentrations were thus 10 % FCS and 1 % DMSO. For the lower dilutions, the 8 mg/mℓ stock was diluted 1:2 or 1:4 or 1:8 with DMSO before the FCS dilution step.
This stock was diluted in water to yield a working stock of 2 mg/mℓ. The 2 mg/ml stock was diluted 1:20 or 1:10 or 1:5 or 1:2.5 in water and again 1:10 in the wells to give the 10, 20, 40 or 80 µg/mℓ final concentrations respectively.

[2] = test concentration 10 µg/mℓ, duration 6 days
[3] = test concentration 25 µg/mℓ, duration 6 days
[4] = test concentration 50 µg/mℓ, duration 6 days

Structure (SMILES): Cc1cn([C@H]2C[C@H](N=[N+]=[N-])[C@@H](CO)O2)c(=O)[nH]c1=O [AZT, reference compound]
- inhibition of P24 protein production (HIV-1; concentration 10 ng/mℓ, test of Table 3): 100%

Structure (SMILES): CC[C@H](CC[C@@H](C)[C@H]1CC[C@H]2[C@@H]3CC=C4C[C@@H](O)CC[C@]4(C)[C@H]3CC[C@]12C)C(C)C [BSS, β-Sitosterol, reference compound]
- % INHIBITION OF P24 PROTEIN PRODUCTION (HIV-1; [2]): 0%
- % INHIBITION OF P24 PROTEIN PRODUCTION (HIV-1; test concentration 10 µg/mℓ, duration 6 days, listed as LL2): no significant inhibition
- % Viability ([1]; Cells + PHA + 1.25 µg/mℓ): 89%
- % Viability ([1]; Cells + PHA + 2.5 µg/mℓ): 81%
- % Viability ([1]; Cells + PHA + 5 µg/mℓ): 92%
- % Viability ([1]; Cells + PHA + 10 µg/mℓ): 82%

Structure (SMILES): CC[C@H](CC[C@@H](C)[C@H]1CC[C@H]2[C@@H]3CC=C4C[C@@H](OS(=O)(=O)O)CC[C@]4(C)[C@H]3CC[C@]12C)C(C)C [BSS-SO₄⁻, β-Sitosteryl sulphate, reference compound]
- % INHIBITION OF P24 PROTEIN PRODUCTION (HIV-1; [2]): 0%
- % INHIBITION OF P24 PROTEIN PRODUCTION (HIV-1; test concentration 10 µg/mℓ, duration 6 days, listed as LL1): no significant inhibition

Structure (SMILES): CC[C@H](CC[C@@H](C)[C@H]1CC[C@H]2[C@@H]3CC=C4C[C@@H](O[C@@H]5O[C@H](CO)[C@@H](O)[C@H](O)[C@H]5O)CC[C@]4(C)[C@H]3CC[C@]12C)C(C)C [BSSG, β-Sitosteryl β-D-glucoside, reference compound]
- % INHIBITION OF P24 PROTEIN PRODUCTION (HIV-1; [2]): 0%
- % INHIBITION OF P24 PROTEIN PRODUCTION (HIV-1; test concentration 10 µg/mℓ, duration 6 days, listed as LL4): no significant inhibition

Structure (SMILES): CC(C)CCC[C@@H](C)[C@H]1CC[C@H]2[C@@H]3CC=C4C[C@@H](O)CC[C@]4(C)[C@H]3CC[C@]12C [CHO, Cholesterol, reference compound]
- % INHIBITION OF P24 PROTEIN PRODUCTION (HIV-1; [2]): 3%
- % INHIBITION OF P24 PROTEIN PRODUCTION (HIV-1; test concentration 10 µg/mℓ, duration 6 days, listed as LL5): no significant inhibition

Structure (SMILES): CC(C)CCC[C@@H](C)[C@H]1CC[C@H]2[C@@H]3CC=C4C[C@@H](OS(=O)(=O)O)CC[C@]4(C)[C@H]3CC[C@]12C [CHO-SO₄⁻, Cholesteryl sulphate, reference compound]
- % INHIBITION OF P24 PROTEIN PRODUCTION (HIV-1; [2]): 0%
- % INHIBITION OF P24 PROTEIN PRODUCTION (HIV-1; test concentration 10 µg/mℓ, duration 6 days, listed as LL6): no significant inhibition

Structure (SMILES): CC(C)CCC[C@@H](C)[C@H]1CC[C@H]2[C@@H]3CC=C4C[C@@H](O[C@@H]5O[C@H](COS(=O)(=O)[O-])[C@@H](OS(=O)(=O)[O-])[C@H](OS(=O)(=O)[O-])[C@H]5OS(=O)(=O)[O-])CC[C@]4(C)[C@H]3CC[C@]12C.[Na+].[Na+].[Na+].[Na+] [CHOG-(SO₄⁻)₄, Cholesteryl β-D-glucoside tetra-sulphate]
- % INHIBITION OF P24 PROTEIN PRODUCTION (HIV-1; test concentration 12.5 µg/mℓ, duration 4 days): 19%
- % INHIBITION OF P24 PROTEIN PRODUCTION (HIV-1; test concentration 25 µg/mℓ, duration 4 days): 18%
- % INHIBITION OF P24 PROTEIN PRODUCTION (HIV-1; test concentration 50 µg/mℓ, duration 4 days): 49%
- % INHIBITION OF P24 PROTEIN PRODUCTION (HIV-1; test concentration 100 µg/mℓ, duration 4 days): 86%

Structure (SMILES): C[C@@H]1CC[C@@]2(OC1)O[C@H]1C[C@H]3[C@@H]4CC=C5C[C@@H](O[C@@H]6O[C@H](COS(=O)(=O)[O-])[C@@H](OS(=O)(=O)[O-])[C@H](OS(=O)(=O)[O-])[C@H]6OS(=O)(=O)[O-])CC[C@]5(C)[C@H]4CC[C@]3(C)[C@H]1[C@@H]2C.[Na+].[Na+].[Na+].[Na+] [DG-(SO₄⁻)₄, Diosgenyl β-D-glucoside tetra-sulphate]
- anti-HIV-1 effect (in words) (HIV-1; in terms of P24 protein production, Tables 1-3): marked anti-HIV-1 effects
- % INHIBITION OF P24 PROTEIN PRODUCTION (HIV-1; [3]): 60%
- % INHIBITION OF P24 PROTEIN PRODUCTION (HIV-1; [4]): 100%

Structure (SMILES): CCCCCCCCCCCCOS(=O)(=O)[O-].[Na+] [SODIUM n-DODECYL SULPHATE, reference compound]
- % INHIBITION OF P24 PROTEIN PRODUCTION (HIV-1; [3]): 0%
- % INHIBITION OF P24 PROTEIN PRODUCTION (HIV-1; [4]): 45%

Structure (SMILES): CCCCCCCCO[C@@H]1O[C@H](COS(=O)(=O)O)[C@@H](OS(=O)(=O)O)[C@H](OS(=O)(=O)O)[C@H]1OS(=O)(=O)O [n-OCTYL GLUCOSIDE TETRA-SULPHATE, reference compound]
- % INHIBITION OF P24 PROTEIN PRODUCTION (HIV-1; [3]): 0%
- % INHIBITION OF P24 PROTEIN PRODUCTION (HIV-1; [4]): 0%
